Source: patent US11299478B2, “2-cyanopyrimidin-4-yl carbamate or urea derivative or salt thereof, and pharmaceutical composition including same” (HANLIM PHARMACEUTICAL CO., LTD., priority 2018, dated 2022)

Biological target: T1, cathepsin K (Homo sapiens, UniProt P43235)
T1 sequence (P43235 115-329): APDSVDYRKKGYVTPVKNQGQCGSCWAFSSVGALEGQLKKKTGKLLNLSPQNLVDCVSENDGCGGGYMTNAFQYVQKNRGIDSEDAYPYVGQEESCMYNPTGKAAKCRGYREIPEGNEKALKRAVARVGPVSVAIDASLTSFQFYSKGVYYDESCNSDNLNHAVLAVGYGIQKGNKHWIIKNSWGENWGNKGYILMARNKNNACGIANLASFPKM
Test: Inhibitory activity assay against cathepsin K (enzyme assay)
Format: biochemical
Conditions: Z-Phe-Arg-AMC 10 μM, enzyme 1 nM, pH 5.5, 30 minutes
Protocol: In order to measure the enzyme activity of cathepsin K, a buffer solution (pH 5.5) consisting of 50 mM 2-(N-morpholino)ethanesulfonic acid (MES), 2 mM dithiothreitol (DTT), 2.5 mM ethylenediaminetetraacetic acid (EDTA), 0.01% Triton X-100, and 10% dimethyl sulfoxide (DMSO) was prepared. The substrate, the test material, and the enzyme were mixed in the buffer solution in a predetermined concentration. The Z-Phe-Arg-AMC substrate was used in the final concentration of 10 μM. The test material was used in the final concentrations of 10.0 μM, 3.33 μM, 1.11 μM, 0.370 μM, 0.123 μM, 0.0412 μM, 0.0137 μM, 0.00457 μM, 0.00152 μM, and 0.000508 μM, respectively. The cathepsin K enzyme was used in the final concentration of 1 nM. The final volume of the enzyme reaction solution was 10 μL. After reacting the mixture of substrate, test material, and enzyme for 30 minutes, the enzyme activity was measured with the Synergy Neo (Biotek) microplate reader at an absorption wavelength of 355 nm and an emission wavelength of 460 nm. IC50 values were determined using 4-parameter logistic curve fit program of GraphPad Prism.

Row | SMILES | IC50
1 | N#Cc1nccc(C2(NC(=O)OCc3ccccc3)CCCC2)n1 [Example 1, Benzyl (1-(2-cyanopyrimidin-4-yl)cyclopentyl)carbamate] | 23 nM
2 | Cc1cccc(COC(=O)NC2(c3ccnc(C#N)n3)CCCC2)c1 [Example 5, 3-methylbenzyl (1-(2-cyanopyrimidin-4-yl)cyclopentyl)carbamate] | 161 nM
3 | COc1cccc(COC(=O)NC2(c3ccnc(C#N)n3)CCCC2)c1 [Example 6, 3-methoxybenzyl (1-(2-cyanopyrimidin-4-yl)cyclopentyl)carbamate] | 179 nM
4 | N#Cc1nccc(C2(NC(=O)OCc3cccc(Cl)c3)CCCC2)n1 [Example 8, 3-chlorobenzyl (1-(2-cyanopyrimidin-4-yl)cyclopentyl)carbamate] | 285 nM
5 | N#Cc1cccc(COC(=O)NC2(c3ccnc(C#N)n3)CCCC2)c1 [Example 9, 3-cyanobenzyl (1-(2-cyanopyrimidin-4-yl)cyclopentyl)carbamate] | 490 nM
6 | N#Cc1nccc(C2(NC(=O)OCc3cccc(-c4ccc(N5CCOCC5)cc4)c3)CCCC2)n1 [Example 32, (4′-morpholino-[1,1′-biphenyl]-3-yl)methyl (1-(2-cyanopyrimidin-4-yl)cyclopentyl)carbamate] | ≥ 10000 nM
7 | Cn1ncc2ccc(-c3ccc(COC(=O)NC4(c5ccnc(C#N)n5)CCCC4)cc3)cc21 [Example 34, 4-(1-methyl-1H-indazol-6-yl)benzyl (1-(2-cyanopyrimidin-4-yl)cyclopentyl)carbamate] | 2040 nM
8 | Cc1ccccc1NC(=O)NC1(c2ccnc(C#N)n2)CCCC1 [Example 37, 1-(1-(2-cyanopyrimidin-4-yl)cyclopentyl)-3-(ortho-tolyl)urea] | 113 nM

The remaining lines, values ahead:

Row | IC50 | SMILES
9 | 108 nM | Cc1ccc(NC(=O)NC2(c3ccnc(C#N)n3)CCCC2)cc1 [Example 39, 1-(1-(2-cyanopyrimidin-4-yl)cyclopentyl)-3-(para-tolyl)urea]
10 | 3430 nM | N#Cc1nccc(C2(NC(=O)NCCc3ccc(S(N)(=O)=O)cc3)CCCC2)n1 [Example 45, 4-(2-(3-(1-(2-cyanopyrimidin-4-yl)cyclopentyl)ureido)ethyl)benzenesulfonamide]
11 | 105 nM | Cc1cccc(CNC(=O)NC2(c3ccnc(C#N)n3)CCCC2)c1 [Example 47, 1-(1-(2-cyanopyrimidin-4-yl)cyclopentyl)-3-(3-methylbenzyl)urea]
12 | 590 nM | COc1ccc(CNC(=O)NC2(c3ccnc(C#N)n3)CCCC2)cc1OC [Example 49, 1-(1-(2-cyanopyrimidin-4-yl)cyclopentyl)-3-(3,4-dimethoxybenzyl)urea]
13 | 608 nM | N#Cc1nccc(C2(NC(=O)Nc3ccc(N4CCNCC4)cc3)CCCC2)n1 [Example 52, 1-(1-(2-cyanopyrimidin-4-yl)cyclopentyl)-3-(4-(piperazin-1-yl)phenyl)urea]
14 | 320 nM | N#Cc1nccc(C2(NC(=O)NCc3ccoc3)CCCC2)n1 [Example 53, 1-(1-(2-cyanopyrimidin-4-yl)cyclopentyl)-3-(furan-3-ylmethyl)urea]
15 | 517 nM | N#Cc1nccc(C2(NC(=O)NCc3cccc(C(F)(F)F)c3)CCCC2)n1 [Example 57, 1-(1-(2-cyanopyrimidin-4-yl)cyclopentyl)-3-(3-(trifluoromethyl)benzyl)urea]
16 | 116 nM | N#Cc1nccc(C2(NC(=O)NCc3ccc(C(F)(F)F)cc3)CCCC2)n1 [Example 58, 1-(1-(2-cyanopyrimidin-4-yl)cyclopentyl)-3-(4-(trifluoromethyl)benzyl)urea]
17 | 174 nM | N#Cc1nccc(C2(NC(=O)Nc3ccccc3C(F)(F)F)CCCC2)n1 [Example 59, 1-(1-(2-cyanopyrimidin-4-yl)cyclopentyl)-3-(2-(trifluoromethyl)phenyl)urea]
18 | 292 nM | N#Cc1nccc(C2(NC(=O)Nc3ccc(C(F)(F)F)cc3)CCCC2)n1 [Example 61, 1-(1-(2-cyanopyrimidin-4-yl)cyclopentyl)-3-(4-(trifluoromethyl)phenyl)urea]
19 | 219 nM | COc1ccccc1CNC(=O)NC1(c2ccnc(C#N)n2)CCCC1 [Example 68, 1-(1-(2-cyanopyrimidin-4-yl)cyclopentyl)-3-(2-methoxybenzyl)urea]
